Measurements from US20220387417A1, “Pharmaceutical Combination and Use Thereof” (CSTONE PHARMACEUTICALS (SUZHOU) CO., LTD., priority 2019, published 2022).
Values joined by “and” are separate entries in the source; they are usually repeats but may differ in a detail not shown here. Equal entries are not always repeated. Structures can show the parent of a compound that is named as a salt.

Columns and labels:
[1] = test system: subcutaneous MC38-hPD-L1 transplanted tumor; assay: Antibody 1.14.4 monotherapy or in combination with Lenvatinib mesylate on B-hPD-1 humanized mouse MC38-hPD-L1 colon cancer model: tumor volume, tumor weight, TGI, synergy score; type: in vivo
Method: (§1) Mouse colon cancer cells MC38 were purchased from Shun Ran (Shanghai) Biotechnology Co., Ltd., and the cells were cultured in a 37° C., 5% CO2 incubator supplemented with Dulbecco's Modified Eagle's medium containing 10% inactivated fetal bovine serum. MC38 cells were genetically modified to overexpress human PD-L1 and knock out murine PD-L1, the modified cells were named as MC38-hPD-L1 cells.
(§2) MC38-hPD-L1 tumor cells were resuspended in 1×PBS to a concentration of 5×10^6 cells/mL. Each of the B-hPD-1 humanized mice was subcutaneously inoculated at the right lateral thorax region with 0.1 mL of the cell suspension, and a total of 85 mice were inoculated. On the 7th day after inoculation, when the average tumor volume reached about 103 mm^3, the mice with moderate tumor volume were selected and randomly divided into 8 groups according to tumor volume, with 7 mice in each group, and the treatment was initiated on the same day.
Tumor volume was measured three times a week in two dimensions using a caliper, and the volume was expressed in mm^3 using the formula: V=0.5 a×b^2 where a and b were the long and short diameters of the tumor, respectively.
(§3) At the termination of the experiment, the animals were photographed to record the tumor bearing state after euthanasia, and the tumors of the mice were weighed and photographed.
TGITV(%)=[1−(Ti−T0)/(Vi−V0)]×100%.
Ti: tumor volume of the treatment group at day i following treatment; T0: tumor volume of the treatment group at day 0 following treatment; Vi: tumor volume of the control group at day i following treatment; V0: tumor volume of the control group at day 0 following treatment.
At the termination of the experiment, the animals were euthanized, the tumors were separated and weighed, and the difference of tumor weight between each group was calculated. Tumor weight inhibition (TGITW) was calculated by the formula:
TGITW (%)=(WC−WT)/[…]×100%; where We means tumor weight of control group, WT means tumor weight of treatment group.
(§4) The original data measured and observed must be recorded. The original data was analyzed and the results were expressed by mean and standard error (Mean±SEM). The data of body weight, tumor volume and tumor weight was statistically analyzed using independent-samples t-test. All data were analyzed using SPSS, P<0.05 is considered to be statistically significant. The results of the analysis were considered both statistical significance and biological significance.
(§5) Synergy score was calculated using the following formula described in Clarke R. Issues in experimental design and endpoint analysis in the study of experimental cytotoxic agents in vivo in breast cancer and other models[J]. Breast Cancer Research & Treatment, 1997, 46(2-3):255-278, which is incorporated by reference in its entirety:
(§6) Synergy score=((A/C)×(B/C))/(AB/C);
(§7) where A is RTV value of drug A; B is RTV value of drug B; C is RTV value of vehicle control; AB is RTV value of combination treatment with A and B respectively. • Synergy score>1 represents synergistic; • Synergy score=1 represents additive; • Synergy score<1 represents antagonistic.
(§8) where V0 and Vt are the average tumor volume at the start of treatment (day 0) and the average tumor volume on a certain time point (day t).

[2] = Body weight of B-hPD-1 mice bearing MC38-hPD-L1 tumors, Embodiment 1 (antibody 1.14.4 / Lenvatinib mesylate); type: in vivo, Mus musculus
Method: as §2
(§9) Animals were weighed 2-3 times a week before tumor inoculation, during animal grouping and the treatment, and before the euthanasia.
as §4

[3] = test system: subcutaneous MC38-hPD-L1 transplanted tumor; assay: Antibody 2E5 monotherapy or in combination with Lenvatinib mesylate on B-hPD-1 humanized mouse MC38-hPD-L1 colon cancer model: tumor volume, tumor weight, TGI, synergy score; type: in vivo
Method: as §5, §6, §7, §8, §1
(§10) MC38-hPD-L1 tumor cells were resuspended in 1×PBS to a concentration of 5×10^5 cells per 0.1 mL. Each of the B-hPD-1 humanized mice was subcutaneously inoculated at the right lateral thorax region with 0.1 mL of the cell suspension. When the average tumor volume reached about 77 mm^3, the mice with moderate tumor volume were selected and randomly divided into 6 groups according to tumor volume, with 10 mice in each group, and the treatment was initiated on the same day.
Tumor volume was measured 2-3 times a week in two dimensions using a caliper, and the volume was expressed in mm^3 using the formula: V=0.5 a×b^2 where a and b were the long and short diameters of the tumor, respectively.
as §3
TGITV(%)=[1−(Ti−T0)/(Vi−V0)]×100%. […]
At the termination of the experiment, the animals were euthanized, the tumors were separated and weighed, and the difference of tumor weight between each group was calculated. Tumor weight inhibition (TGITW) was calculated by the formula: […]
(§11) The original data measured and observed must be recorded. The original data was analyzed and the results were expressed by mean and standard error (Mean±SEM). The data of body weight, tumor volume and tumor weight was statistically analyzed using independent-samples t-test. All data were analyzed using SPSS, P<0.05 is considered to be statistically significant.

[4] = Body weight of B-hPD-1 humanized mice bearing MC38-hPD-L1 tumors, Embodiment 2 (antibody 2E5 / Lenvatinib mesylate); type: in vivo, Mus musculus
Method: as §10, §9, §11

[5] = 17th day after the start of treatment, Antibody 2E5 1 mg/kg i.p., Lenvatinib mesylate 1 mg/kg p.o. QD (G2, G4, G5)

COc1cc2nccc(Oc3ccc(NC(=O)NC4CC4)c(Cl)c3)c2cc1C(N)=O [Lenvatinib mesylate, reference compound]
Tumor volume (mm^3)/Mean ± SEM Day 16 ([1]; 16th day after the start of treatment, antibody 1.14.4 3 mg/kg Q2D i.p., Lenvatinib mesylate 1 mg/kg QD p.o.): 1333 ± 261 mm^3 | Tumor volume (mm^3)/Mean ± SEM Day 0 ([1]; Day 0, Antibody 1.14.4 3 mg/kg, Lenvatinib mesylate 1 mg/kg, Table 11): 103 ± 8 mm^3 | Tumor volume (mm^3)/Mean ± SEM Day 0 ([1]; Day 0 = day of the start of treatment, antibody 1.14.4 3 mg/kg, Lenvatinib mesylate 1 mg/kg, Table 10): 103 ± 8 mm^3 | Tumor volume (mm^3)/Mean ± SEM Day 20 ([1]; Day 20, Antibody 1.14.4 3 mg/kg Q2D i.p., Lenvatinib mesylate 1 mg/kg QD p.o.): 1726 ± 374 mm^3 | Tumor weight (g) Mean ± SEM ([1]; Day 20, antibody 1.14.4 3 mg/kg, Lenvatinib mesylate 1 mg/kg, Table 13): 1.244 ± 0.292 g | Tumor weight (g), group Mean ([1]; group mean (7 mice), Day 20, Antibody 1.14.4 3 mg/kg, Lenvatinib mesylate 1 mg/kg): 1.244 g | Tumor weight (g), individual animal ([1]; individual mouse, 20th day after the start of treatment, Antibody 1.14.4 3 mg/kg Q2D i.p., Lenvatinib mesylate 1 mg/kg QD p.o.): 1.039 g and 2.048 g and 2.485 g and 0.652 g and 0.408 g and 1.362 g and 0.715 g | TGITV (%) ([1]; tumor growth inhibition by tumor volume, Day 16, vs hIgG4 control, antibody 1.14.4 3 mg/kg, Lenvatinib mesylate 1 mg/kg): 38.8% | TGITW ([1]; tumor weight inhibition vs hIgG4 control, Day 20, Antibody 1.14.4 3 mg/kg, Lenvatinib mesylate 1 mg/kg): 21.3% | Weight (g)/Mean ± SEM Day 16 ([2]; 16th day after the start of treatment, Antibody 1.14.4 3 mg/kg, Lenvatinib mesylate 1 mg/kg): 22.5 ± 0.2 g | Weight (g)/Mean ± SEM Day 0 ([2]; Day 0 = day of the start of treatment, Antibody 1.14.4 3 mg/kg, Lenvatinib mesylate 1 mg/kg): 19.9 ± 0.3 g | Weight (g) Changes ([2]; Day 16 vs Day 0, Antibody 1.14.4 3 mg/kg, Lenvatinib mesylate 1 mg/kg): +2.6 g | Days after the start of treatment/weight (g), group Mean, day 0 ([2]; group mean (7 mice), day 0, Antibody 1.14.4 3 mg/kg Q2D i.p., Lenvatinib mesylate 1 mg/kg QD p.o.): 19.9 g | Days after the start of treatment/weight (g), group Mean, day 3 ([2]; group mean (7 mice), day 3, Antibody 1.14.4 3 mg/kg Q2D i.p., Lenvatinib mesylate 1 mg/kg QD p.o.): 19.5 g | Days after the start of treatment/weight (g), group Mean, day 6 ([2]; group mean (7 mice), day 6, Antibody 1.14.4 3 mg/kg Q2D i.p., Lenvatinib mesylate 1 mg/kg QD p.o.): 20.3 g | Days after the start of treatment/weight (g), group Mean, day 8 ([2]; group mean (7 mice), day 8, Antibody 1.14.4 3 mg/kg Q2D i.p., Lenvatinib mesylate 1 mg/kg QD p.o.): 20.5 g | Days after the start of treatment/weight (g), group Mean, day 10 ([2]; group mean (7 mice), day 10, Antibody 1.14.4 3 mg/kg Q2D i.p., Lenvatinib mesylate 1 mg/kg QD p.o.): 20.9 g | Days after the start of treatment/weight (g), group Mean, day 12 ([2]; group mean (7 mice), day 12, Antibody 1.14.4 3 mg/kg Q2D i.p., Lenvatinib mesylate 1 mg/kg QD p.o.): 21.2 g | Days after the start of treatment/weight (g), group Mean, day 14 ([2]; group mean (7 mice), day 14, Antibody 1.14.4 3 mg/kg Q2D i.p., Lenvatinib mesylate 1 mg/kg QD p.o.): 22.3 g | Days after the start of treatment/weight (g), group Mean, day 16 ([2]; group mean (7 mice), day 16, Antibody 1.14.4 3 mg/kg Q2D i.p., Lenvatinib mesylate 1 mg/kg QD p.o.): 22.5 g | Days after the start of treatment/weight (g), group Mean, day 19 ([2]; group mean (7 mice), day 19, Antibody 1.14.4 3 mg/kg Q2D i.p., Lenvatinib mesylate 1 mg/kg QD p.o.): 21.9 g | Days after the start of treatment/weight (g), group Mean, day 20 ([2]; group mean (7 mice), day 20, Antibody 1.14.4 3 mg/kg Q2D i.p., Lenvatinib mesylate 1 mg/kg QD p.o.): 22.7 g | Days after the start of treatment/weight (g), individual animal, day 0 ([2]; individual mouse, day 0, Antibody 1.14.4 3 mg/kg Q2D i.p., Lenvatinib mesylate 1 mg/kg QD p.o.): 18.6 g and 19.5 g and 19.4 g and 20.0 g and 20.2 g and 20.8 g (2×) | Days after the start of treatment/weight (g), individual animal, day 3 ([2]; individual mouse, day 3, Antibody 1.14.4 3 mg/kg Q2D i.p., Lenvatinib mesylate 1 mg/kg QD p.o.): 18.8 g and 19.2 g and 18.9 g and 19.7 g and 19.3 g and 20.3 g and 20.2 g | Days after the start of treatment/weight (g), individual animal, day 6 ([2]; individual mouse, day 6, Antibody 1.14.4 3 mg/kg Q2D i.p., Lenvatinib mesylate 1 mg/kg QD p.o.): 19.4 g and 20.1 g and 19.8 g and 20.6 g and 20.3 g and 21.2 g and 20.8 g | Days after the start of treatment/weight (g), individual animal, day 8 ([2]; individual mouse, day 8, Antibody 1.14.4 3 mg/kg Q2D i.p., Lenvatinib mesylate 1 mg/kg QD p.o.): 19.5 g and 20.6 g and 20.4 g and 20.7 g and 20.3 g and 21.0 g (2×) | Days after the start of treatment/weight (g), individual animal, day 10 ([2]; individual mouse, day 10, Antibody 1.14.4 3 mg/kg Q2D i.p., Lenvatinib mesylate 1 mg/kg QD p.o.): 20.2 g and 21.1 g and 20.1 g and 21.5 g and 20.4 g and 21.7 g and 21.4 g | Days after the start of treatment/weight (g), individual animal, day 12 ([2]; individual mouse, day 12, Antibody 1.14.4 3 mg/kg Q2D i.p., Lenvatinib mesylate 1 mg/kg QD p.o.): 20.1 g and 21.1 g (2×) and 21.4 g and 20.7 g and 22.2 g and 21.6 g | Days after the start of treatment/weight (g), individual animal, day 14 ([2]; individual mouse, day 14, Antibody 1.14.4 3 mg/kg Q2D i.p., Lenvatinib mesylate 1 mg/kg QD p.o.): 20.9 g and 22.9 g and 22.0 g (2×) and 22.2 g and 23.0 g (2×) | Days after the start of treatment/weight (g), individual animal, day 16 ([2]; individual mouse, day 16, Antibody 1.14.4 3 mg/kg Q2D i.p., Lenvatinib mesylate 1 mg/kg QD p.o.): 21.6 g and 22.8 g (2×) and 22.6 g and 22.5 g and 21.9 g and 23.0 g | Days after the start of treatment/weight (g), individual animal, day 19 ([2]; individual mouse, day 19, Antibody 1.14.4 3 mg/kg Q2D i.p., Lenvatinib mesylate 1 mg/kg QD p.o.): 21.2 g and 23.0 g (2×) and 21.9 g and 21.4 g and 22.6 g and 20.3 g | Days after the start of treatment/weight (g), individual animal, day 20 ([2]; individual mouse, day 20, Antibody 1.14.4 3 mg/kg Q2D i.p., Lenvatinib mesylate 1 mg/kg QD p.o.): 21.5 g and 23.2 g (3×) and 22.6 g and 22.1 g and 22.9 g | Tumor volume (mm^3)/Mean ± SEM Day 17 [3, 5]: 891 ± 149 mm^3 | Tumor weight (g) Mean ± SEM ([3]; Day 17, Antibody 2E5 1 mg/kg, Lenvatinib mesylate 1 mg/kg (G2, G4, G5)): 0.767 ± 0.103 g | Tumor growth inhibition (%) ([3]; by tumor volume, Day 17, vs hIgG4 control, Antibody 2E5 1 mg/kg, Lenvatinib mesylate 1 mg/kg (G2, G4, G5)): 68.2% | Tumor growth inhibition (%) ([3]; tumor weight analysis (Table 21), Day 17, vs IgG4 control, Antibody 2E5 1 mg/kg, Lenvatinib mesylate 1 mg/kg (G2, G4, G5)): 63.2% | Weight (g)/Mean ± SEM Day 17 [4, 5]: 28.0 ± 0.8 g | Weight (g)/Mean ± SEM Day 0 ([4]; Day 0, Antibody 2E5 1 mg/kg i.p., Lenvatinib mesylate 1 mg/kg p.o. QD (G2, G4, G5)): 24.9 ± 0.8 g | Weight (g) Changes ([4]; Day 17 vs Day 0, Antibody 2E5 1 mg/kg, Lenvatinib mesylate 1 mg/kg (G2, G4, G5)): +3.1 g
